Measured values from ChEMBL document CHEMBL5537175, “Unraveling the Puzzle of Therapeutic Peptides: A Promising Frontier in Huntington's Disease Treatment” (J Med Chem, 2024).
Values belong to the substance of their own block, whether it stands above or below them.

Key:
RNA = assay: Binding affinity to CAG repeat RNA (unknown origin) assessed as dissociation constant; type: nucleic-acid assay
COS-7 = assay: Cytotoxicity against african green monkey COS-7 cells assessed as reduction in cell growth; type: toxicity, cell-based; parameters: scale not given: the % may be the effect or the level left; conditions: chlorocebus aethiops
Huntingtin [1] = target: T1, Huntingtin (Homo sapiens, UniProt P42858); assay: Inhibition of HTT (unknown origin) aggregation at 5 uM relative to control
Caspase-6 = target: T2, Caspase-6 (Homo sapiens, UniProt P55212); assay: Inhibition of Caspase-6 activity (unknown origin) by FRET assay
T2 sequence (P55212 whole entry): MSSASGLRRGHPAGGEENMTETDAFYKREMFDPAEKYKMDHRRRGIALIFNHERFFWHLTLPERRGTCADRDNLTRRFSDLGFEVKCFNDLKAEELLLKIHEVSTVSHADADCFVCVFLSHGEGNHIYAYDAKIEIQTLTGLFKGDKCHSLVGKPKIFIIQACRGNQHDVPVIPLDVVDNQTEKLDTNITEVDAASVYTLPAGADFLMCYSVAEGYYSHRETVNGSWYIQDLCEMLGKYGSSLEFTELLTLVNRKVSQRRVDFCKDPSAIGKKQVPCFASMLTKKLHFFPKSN

[2] = Inhibition of YFP aggregation in african green monkey COS-7 cells at 70 nM relative to control; type: functional; conditions: Chlorocebus aethiops
Huntingtin [3] = target: T1, Huntingtin; assay: Inhibition of HTT (unknown origin) by ELISA method
Huntingtin [4] = target: T1, Huntingtin; assay: Binding affinity to HTT (unknown origin) assessed as dissociation constant by surface plasmon resonance assay

T1 sequence (P42858 whole entry): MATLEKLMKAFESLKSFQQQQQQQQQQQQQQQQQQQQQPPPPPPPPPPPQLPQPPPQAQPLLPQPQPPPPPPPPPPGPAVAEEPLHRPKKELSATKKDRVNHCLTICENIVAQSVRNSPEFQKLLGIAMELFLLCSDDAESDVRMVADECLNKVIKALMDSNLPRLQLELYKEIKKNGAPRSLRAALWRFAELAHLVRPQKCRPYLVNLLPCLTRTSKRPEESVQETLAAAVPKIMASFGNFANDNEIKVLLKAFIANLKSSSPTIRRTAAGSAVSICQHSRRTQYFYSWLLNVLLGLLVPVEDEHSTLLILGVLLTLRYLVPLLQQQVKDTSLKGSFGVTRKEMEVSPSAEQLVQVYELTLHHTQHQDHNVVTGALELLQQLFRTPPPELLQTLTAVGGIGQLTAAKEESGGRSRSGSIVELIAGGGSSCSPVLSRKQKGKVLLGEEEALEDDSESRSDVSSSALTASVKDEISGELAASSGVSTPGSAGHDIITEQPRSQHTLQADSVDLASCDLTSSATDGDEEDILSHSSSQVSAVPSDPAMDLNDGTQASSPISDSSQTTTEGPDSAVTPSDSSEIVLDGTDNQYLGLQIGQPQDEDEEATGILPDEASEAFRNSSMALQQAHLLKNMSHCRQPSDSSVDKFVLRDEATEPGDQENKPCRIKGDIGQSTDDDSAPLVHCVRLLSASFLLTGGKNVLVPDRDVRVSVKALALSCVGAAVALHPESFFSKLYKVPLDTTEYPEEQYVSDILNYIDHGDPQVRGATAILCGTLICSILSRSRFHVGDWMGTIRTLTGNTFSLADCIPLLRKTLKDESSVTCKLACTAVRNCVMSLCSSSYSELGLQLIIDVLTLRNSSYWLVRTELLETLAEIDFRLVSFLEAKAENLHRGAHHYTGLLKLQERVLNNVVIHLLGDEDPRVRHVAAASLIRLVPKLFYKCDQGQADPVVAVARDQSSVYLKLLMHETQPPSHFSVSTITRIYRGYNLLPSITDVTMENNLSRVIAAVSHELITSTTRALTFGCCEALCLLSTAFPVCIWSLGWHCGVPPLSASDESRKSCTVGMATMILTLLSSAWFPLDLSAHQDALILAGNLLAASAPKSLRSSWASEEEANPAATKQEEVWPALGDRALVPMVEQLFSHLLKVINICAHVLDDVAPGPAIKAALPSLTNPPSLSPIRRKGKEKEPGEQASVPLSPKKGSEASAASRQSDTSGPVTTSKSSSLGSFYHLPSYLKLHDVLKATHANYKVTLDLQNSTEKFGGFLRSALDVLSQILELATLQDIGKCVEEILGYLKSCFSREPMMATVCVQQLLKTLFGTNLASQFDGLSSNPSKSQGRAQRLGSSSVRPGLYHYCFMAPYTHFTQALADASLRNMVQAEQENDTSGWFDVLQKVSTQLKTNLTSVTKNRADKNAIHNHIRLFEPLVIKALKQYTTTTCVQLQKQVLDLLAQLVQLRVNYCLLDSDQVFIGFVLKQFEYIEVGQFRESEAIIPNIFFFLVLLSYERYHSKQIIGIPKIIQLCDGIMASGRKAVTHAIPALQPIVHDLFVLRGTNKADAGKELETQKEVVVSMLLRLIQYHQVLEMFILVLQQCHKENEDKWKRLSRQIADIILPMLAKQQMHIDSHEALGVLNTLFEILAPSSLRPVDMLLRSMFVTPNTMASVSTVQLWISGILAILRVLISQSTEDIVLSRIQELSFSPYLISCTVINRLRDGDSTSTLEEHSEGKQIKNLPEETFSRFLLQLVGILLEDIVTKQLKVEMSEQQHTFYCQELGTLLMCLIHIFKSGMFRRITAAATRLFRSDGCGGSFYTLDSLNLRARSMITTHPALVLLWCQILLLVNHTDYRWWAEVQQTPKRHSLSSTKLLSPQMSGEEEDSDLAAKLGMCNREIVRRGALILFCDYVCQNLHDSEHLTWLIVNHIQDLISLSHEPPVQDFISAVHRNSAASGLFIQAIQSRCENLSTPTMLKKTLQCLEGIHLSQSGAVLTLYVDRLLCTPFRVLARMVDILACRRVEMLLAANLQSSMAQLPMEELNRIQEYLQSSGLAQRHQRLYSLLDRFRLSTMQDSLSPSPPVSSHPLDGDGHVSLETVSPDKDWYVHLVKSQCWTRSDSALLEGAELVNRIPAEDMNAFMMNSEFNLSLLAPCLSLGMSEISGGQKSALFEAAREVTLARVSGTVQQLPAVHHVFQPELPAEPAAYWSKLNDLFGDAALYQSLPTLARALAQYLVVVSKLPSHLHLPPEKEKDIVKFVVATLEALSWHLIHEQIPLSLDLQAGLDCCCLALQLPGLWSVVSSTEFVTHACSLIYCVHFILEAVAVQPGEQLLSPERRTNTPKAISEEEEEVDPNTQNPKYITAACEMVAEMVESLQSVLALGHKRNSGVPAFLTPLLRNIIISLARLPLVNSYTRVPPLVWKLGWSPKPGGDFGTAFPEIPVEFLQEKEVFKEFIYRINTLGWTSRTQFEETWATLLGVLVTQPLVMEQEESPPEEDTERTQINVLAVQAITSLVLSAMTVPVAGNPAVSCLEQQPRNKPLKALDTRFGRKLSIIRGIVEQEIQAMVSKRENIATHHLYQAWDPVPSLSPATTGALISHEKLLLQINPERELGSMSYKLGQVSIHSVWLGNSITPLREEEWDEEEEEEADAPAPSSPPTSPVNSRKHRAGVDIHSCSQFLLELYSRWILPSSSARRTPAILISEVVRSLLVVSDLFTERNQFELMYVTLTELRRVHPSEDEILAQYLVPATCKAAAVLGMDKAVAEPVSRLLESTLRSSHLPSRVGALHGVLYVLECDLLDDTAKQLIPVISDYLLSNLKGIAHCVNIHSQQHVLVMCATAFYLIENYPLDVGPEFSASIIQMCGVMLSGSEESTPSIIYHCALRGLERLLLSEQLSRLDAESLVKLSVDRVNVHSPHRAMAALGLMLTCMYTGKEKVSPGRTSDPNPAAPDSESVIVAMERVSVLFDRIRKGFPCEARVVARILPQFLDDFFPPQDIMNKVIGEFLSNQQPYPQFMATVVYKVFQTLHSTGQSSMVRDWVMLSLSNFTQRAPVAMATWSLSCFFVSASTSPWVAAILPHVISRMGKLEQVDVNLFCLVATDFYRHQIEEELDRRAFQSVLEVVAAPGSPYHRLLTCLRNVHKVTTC

Substance: H-RQIKIWFQNRRMKWKKSNWKWWPGIFD-OH
- Activity (COS-7): 30.2%

Substance: H-GRKKRRQRRRPPQSSEIVLDGTDN-OH
- IC50 (Caspase-6): 12.1 nM

Substance: H-WKWWPGIFDYGRKKRRQRRR-OH
- inhibition at 0.07 µM [2]: 81.2%

More lines, now with the values ahead:

- Kd (RNA): 660 nM
Substance: H-AEIRLVSKDGKSKGIAYIEFK-OH

- Kd (RNA): 8.37 nM
Substance: H-DGKSKGIAYIEFK-OH

- Kd (RNA): 0.33 nM
Substance: Ac-DGKSKGIAYIEFK-NH2

- inhibition (Huntingtin [1]): 20%
Substance: H-MATLEKLMKAFESLKSF-OH

- IC50 (Huntingtin [3]): 5000 nM
- Kd (Huntingtin [4]): 5700 nM
Substance: H-SNWKWWPGIFD-OH
